Laboratory results published in ChEMBL document CHEMBL1201862, “PubChem BioAssay data set” (2004).
The source made the active and inactive calls.

Key:
[1] = target: T1, Type-1 angiotensin II receptor (Homo sapiens, UniProt P30556); experiment: AT1 receptor agonists, dose response, selectivity assay for APJ receptor agonist project, cell-based, uHTS hits (AID 488865); format: functional;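 further: beta-arrestin recruitment to AT1 measured by enzyme fragment complementation luminescence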
T1 sequence (P30556 whole entry): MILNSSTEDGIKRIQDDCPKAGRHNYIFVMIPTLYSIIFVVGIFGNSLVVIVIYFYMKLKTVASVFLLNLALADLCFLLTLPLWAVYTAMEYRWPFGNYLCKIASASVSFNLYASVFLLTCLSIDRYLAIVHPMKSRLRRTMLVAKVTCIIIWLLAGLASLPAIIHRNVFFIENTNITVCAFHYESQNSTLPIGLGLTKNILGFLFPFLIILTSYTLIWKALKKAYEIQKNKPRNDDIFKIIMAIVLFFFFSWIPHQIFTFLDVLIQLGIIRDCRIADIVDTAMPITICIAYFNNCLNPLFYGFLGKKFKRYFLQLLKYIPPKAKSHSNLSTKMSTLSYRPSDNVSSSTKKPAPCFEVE

Cytochrome P450 2D6 = Cytochrome P450 2D6 (Homo sapiens, UniProt P10635);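 further: CYP2D6 member of a cytochrome P450 panel assay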
[2] = target: T2, G-protein coupled receptor 35 (Homo sapiens, UniProt Q9HC97); experiment: SAR analysis of Agonists of the GPR35 Receptor using an Image-Based Assay - Set 4. [Related pubchem assays (depositor defined):AID2013, AID2026]; format: functional
Cytochrome P450 2C19 = Cytochrome P450 2C19 (Homo sapiens, UniProt P33261); experiment: Cytochrome panel assay with activity outcomes. Panel member name: p450-cyp2c19 Compounds with AC50 equal or less than 10 uM are considered active; format: functional; conditions: read-out: AC50
Cannabinoid receptor 2 [3] = target: T3, Cannabinoid receptor 2 (Homo sapiens, UniProt P34972); experiment: SAR analysis of agonists of the Cannabinoid Receptor 2 using an Image-Based Assay - Set 3. [Related pubchem assays (depositor defined):AID2013, AID2026]; format: functional
Cannabinoid receptor 1 [4] = target: T4, Cannabinoid receptor 1 (Homo sapiens, UniProt P21554); experiment: SAR analysis of antagonists of the Cannabinoid Receptor 1 using an Image-Based Assay - Set 4. [Related pubchem assays (depositor defined):AID2013, AID2026]; format: functional
[5] = target: G-protein coupled receptor 55 (Homo sapiens, UniProt Q9Y2T6); experiment: SAR Analysis of Selective Antagonists of GPR55 using an Image-Based Assay - Set 4. [Related pubchem assays (depositor defined):AID2013, AID2026]; format: functional;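 further: antagonism of response to 5 µM lysophosphatidylinositol agonist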
[6] = target: T2, G-protein coupled receptor 35; experiment: SAR analysis of Antagonists of the GPR35 Receptor using an Image-Based Assay - Set 6. [Related pubchem assays (depositor defined):AID2013, AID2026]; format: functional
Cannabinoid receptor 1 [7] = target: T4, Cannabinoid receptor 1; experiment: SAR analysis of agonists of the Cannabinoid Receptor 1 using an Image-Based Assay - Set 4. [Related pubchem assays (depositor defined):AID2013, AID2026]; format: functional
Cannabinoid receptor 2 [8] = target: T3, Cannabinoid receptor 2; experiment: SAR analysis of antagonists of the Cannabinoid Receptor 2 using an Image-Based Assay - Set 3. [Related pubchem assays (depositor defined):AID2013, AID2026]; format: functional
[9] = target: Voltage-dependent T-type calcium channel subunit alpha-1H (Homo sapiens, UniProt O95180); experiment: Cav3.2 T-type channel inhibitors, synthesized analogs, SAR follow-up, cell-based, synthetic library set 2, HEK293 HH8, Fluo-4 (AID 493023); format: functional
[10] = target: T5, E3 ubiquitin-protein ligase XIAP (Homo sapiens, UniProt P98170); experiment: XIAP antagonists, biochemical, IAP family, fluorescence polarization (AID 1018); format: functional
[11] = target: T5, E3 ubiquitin-protein ligase XIAP; experiment: Counter Screen using XIAP-Bir3 for Chemical Antagonists of Bir1/2 domains of IAP-family anti-apoptotic proteins. [Related pubchem assays (depositor defined):AID1018, AID1449, AID1514, AID1638, AID1749, AID1750, AID488957, AID488963]
Coagulation factor XII = target: T6, Coagulation factor XII (Homo sapiens, UniProt P00748); experiment: Factor XIIa Dose Response Confirmation from Single Well HTS. [Related pubchem assays (depositor defined):AID701]; format: functional
T6 sequence (P00748 whole entry): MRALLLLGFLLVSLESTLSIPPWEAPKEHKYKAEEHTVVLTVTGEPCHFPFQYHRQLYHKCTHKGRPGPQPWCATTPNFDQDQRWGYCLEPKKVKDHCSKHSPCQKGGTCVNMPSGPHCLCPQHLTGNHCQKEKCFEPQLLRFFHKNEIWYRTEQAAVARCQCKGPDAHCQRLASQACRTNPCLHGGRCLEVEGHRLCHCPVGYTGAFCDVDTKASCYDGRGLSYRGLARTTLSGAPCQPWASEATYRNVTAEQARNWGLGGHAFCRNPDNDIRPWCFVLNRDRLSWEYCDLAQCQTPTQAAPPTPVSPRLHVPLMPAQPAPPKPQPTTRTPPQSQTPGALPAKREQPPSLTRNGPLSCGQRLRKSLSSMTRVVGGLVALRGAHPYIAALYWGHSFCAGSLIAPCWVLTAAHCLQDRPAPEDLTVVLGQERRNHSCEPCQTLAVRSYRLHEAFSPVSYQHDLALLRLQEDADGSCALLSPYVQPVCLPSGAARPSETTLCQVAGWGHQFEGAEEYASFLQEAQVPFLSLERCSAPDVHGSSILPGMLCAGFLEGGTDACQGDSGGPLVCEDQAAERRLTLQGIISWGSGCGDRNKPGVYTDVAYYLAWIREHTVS

[12] = target: Mitogen-activated protein kinase 10 (Homo sapiens, UniProt P53779); experiment: Dose response biochemical screening assay for inhibitors of c-Jun N-Terminal Kinase 3 (JNK3). [Related pubchem assays: 746 ]
[13] = target: Lysosomal acid glucosylceramidase (Homo sapiens, UniProt P04062); experiment: Dose response cell-based high throughput screening assay to identify enhancers of beta-glucosidase activity. [Related pubchem assays: 784 ]; format: functional
SUMO-activating enzyme = SUMO-activating enzyme (Homo sapiens, UniProt Q9UBT2); experiment: SUMOylation inhibitor hit validation, confirmation, SUMOylation inhibitor project, biochemical, AlphaScreen (AID 2018); format: functional
[14] = target: T7, Microphthalmia-associated transcription factor (Homo sapiens, UniProt O75030); experiment: TRPM1 promoter luciferase signal decrease, dose response, MITF inhibitor project, cell-based, SK-MEL-5, cherry-picked, set 3 (AID 493073); format: functional
T7 sequence (O75030 whole entry): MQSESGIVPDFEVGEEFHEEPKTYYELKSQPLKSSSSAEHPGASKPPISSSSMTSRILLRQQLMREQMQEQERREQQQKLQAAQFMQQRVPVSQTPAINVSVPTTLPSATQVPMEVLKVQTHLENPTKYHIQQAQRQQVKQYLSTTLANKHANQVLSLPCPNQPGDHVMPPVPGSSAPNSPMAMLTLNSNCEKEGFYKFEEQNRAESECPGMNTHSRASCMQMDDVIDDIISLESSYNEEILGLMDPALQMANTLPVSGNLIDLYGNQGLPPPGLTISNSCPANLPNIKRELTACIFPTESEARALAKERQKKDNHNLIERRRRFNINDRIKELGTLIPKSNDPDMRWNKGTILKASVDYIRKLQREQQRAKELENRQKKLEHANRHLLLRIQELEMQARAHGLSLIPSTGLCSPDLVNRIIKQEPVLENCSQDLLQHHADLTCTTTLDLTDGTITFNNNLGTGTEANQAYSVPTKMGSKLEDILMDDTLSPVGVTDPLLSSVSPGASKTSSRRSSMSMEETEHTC

[15] = target: T8, Runt-related transcription factor 1/Core-binding factor subunit beta (Homo sapiens, UniProt Q01196+Q13951); experiment: inhibitors of RUNX1 Runt–CBFb-SMMHC binding, primary screen, biochemical, FRET, Cerulean-Runt, Venus-CBFb-SMMHC, uHTS (AID 1434); format: protein assay;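 further: partner is the CBFb-SMMHC leukemia fusion protein rather than wild-type CBFb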
Beta Lactamase = Beta Lactamase (Pseudomonas aeruginosa, UniProt Q932Y6); experiment: beta-lactamase reporter inhibitor potency, dose response, artefact control for TLR9-MyD88 binding inhibitor project, BLA reporter cells, FRET fluorescence (AID 588341); format: cell-based;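 further: cell based assay in CHO-K1 cells stably expressing beta-lactamase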
CHO = experiment: cytotoxicity in TLR9-MyD88 CHO cells, dose response, cytotoxicity control for TLR9-MyD88 binding inhibitor project, cell-based, luminescence (AID 588339); format: functional, hamster; conditions: Cricetulus griseus;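 further: CHO cells stably coexpressing TLR9 and MyD88 fusions from primary screen; compound exposure lasted 48 hours before viability readout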
[16] = growth suppression of PTEN-null colon cells, dose response, cell-based, HCT116 PTEN knockout (AID 1047); format: functional;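 further: HCT116 colon tumor cells with PTEN knocked out; cells exposed to compound for 60 hours before readout; potency for loss of cell viability measured by luminescence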
[17] = growth suppression of beta-catenin-knockout colon cells, dose response, cell-based, HCT116, human colon tumor (AID 1045); format: functional;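 further: HCT116 colon tumor cells with beta catenin knocked out; cells exposed to compound for 60 hours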
[18] = target: T8, Runt-related transcription factor 1/Core-binding factor subunit beta; experiment: inhibitors of RUNX1 Runt–CBFb-SMMHC binding, biochemical, TR-FRET (AID 1438); format: protein assay
Kallikrein-7 = Kallikrein-7 (Homo sapiens, UniProt P49862); experiment: Fluorescence Intensity-based biochemical primary high throughput dose response assay to identify activators of kallikrein-7 (K7) zymogen.
[19] = target: T9, Kappa-type opioid receptor (Homo sapiens, UniProt P41145); experiment: SAR analysis of small molecule antagonists of the kappa opioid receptor via a luminescent beta-arrestin assay - Set 3. [Related pubchem assays (depositor defined):AID1777, AID1778, AID1785, AID1786, AID1966, AID2133, AID2136, AID2285, AID2495]; format: functional
[20] = target: Delta-type opioid receptor (Homo sapiens, UniProt P41143); experiment: SAR Analysis of Antagonists of the DOR Receptor using an Image-Based Assay - Set 3. [Related pubchem assays (depositor defined):AID1777, AID1785]; format: functional;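 further: U2OS cells expressing DOR1 and beta-arrestin GFP stimulated with 100 nM SNC80; imaging of GFP-tagged beta-arrestin moving into spots after receptor activation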
[21] = target: T9, Kappa-type opioid receptor; experiment: SAR analysis of Antagonists of the Kappa Opioid Receptor (KOR) using an Image-Based Assay - Set 4. [Related pubchem assays (depositor defined):AID1777, AID1785]; format: functional
[22] = target: T9, Kappa-type opioid receptor; experiment: SAR analysis of small molecule antagonists of the kappa opioid receptor via a luminescent beta-arrestin assay - Set 6. [Related pubchem assays (depositor defined):AID1777, AID1778, AID1785, AID1786, AID1966, AID2133, AID2136, AID2285]; format: functional
Mu-type opioid receptor = Mu-type opioid receptor (Homo sapiens, UniProt P35372); experiment: SAR Analysis of Antagonists of the MOR Receptor using an Image-Based Assay - Set 3. [Related pubchem assays (depositor defined):AID1777, AID1785, AID1786, AID1966, AID2133, AID2136, AID2284, AID2285, AID2420]; format: functional

T9 sequence (P41145 whole entry): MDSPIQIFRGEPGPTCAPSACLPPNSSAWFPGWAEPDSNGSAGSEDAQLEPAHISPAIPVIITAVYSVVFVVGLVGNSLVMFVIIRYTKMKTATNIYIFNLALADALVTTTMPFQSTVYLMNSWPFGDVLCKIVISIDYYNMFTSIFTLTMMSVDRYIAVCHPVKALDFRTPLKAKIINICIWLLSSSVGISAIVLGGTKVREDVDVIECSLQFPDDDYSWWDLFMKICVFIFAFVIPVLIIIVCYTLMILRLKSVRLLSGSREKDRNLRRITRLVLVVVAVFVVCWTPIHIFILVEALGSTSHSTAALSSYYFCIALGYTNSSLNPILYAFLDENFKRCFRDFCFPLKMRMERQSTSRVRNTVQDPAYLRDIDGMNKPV
T8 sequence (Q01196 whole entry, the tested form may be a part): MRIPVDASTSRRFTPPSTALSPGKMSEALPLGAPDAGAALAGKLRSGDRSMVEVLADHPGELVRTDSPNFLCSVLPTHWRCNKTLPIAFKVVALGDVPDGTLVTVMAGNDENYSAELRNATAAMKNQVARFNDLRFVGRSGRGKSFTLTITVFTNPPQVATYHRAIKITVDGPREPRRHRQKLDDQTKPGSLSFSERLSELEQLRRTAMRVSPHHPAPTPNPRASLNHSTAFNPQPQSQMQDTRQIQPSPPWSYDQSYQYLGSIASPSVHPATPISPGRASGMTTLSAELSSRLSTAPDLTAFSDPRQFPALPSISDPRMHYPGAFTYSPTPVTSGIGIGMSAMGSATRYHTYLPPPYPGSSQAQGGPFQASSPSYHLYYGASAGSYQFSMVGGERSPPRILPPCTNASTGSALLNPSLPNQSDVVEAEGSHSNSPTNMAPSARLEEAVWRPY
T8 sequence (Q13951 whole entry, the tested form may be a part): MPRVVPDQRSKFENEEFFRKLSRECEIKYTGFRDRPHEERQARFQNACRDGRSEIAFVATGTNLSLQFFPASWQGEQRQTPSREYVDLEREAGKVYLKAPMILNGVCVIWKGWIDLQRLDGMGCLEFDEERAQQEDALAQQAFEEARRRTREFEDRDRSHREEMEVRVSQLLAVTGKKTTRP
T3 sequence (P34972 whole entry): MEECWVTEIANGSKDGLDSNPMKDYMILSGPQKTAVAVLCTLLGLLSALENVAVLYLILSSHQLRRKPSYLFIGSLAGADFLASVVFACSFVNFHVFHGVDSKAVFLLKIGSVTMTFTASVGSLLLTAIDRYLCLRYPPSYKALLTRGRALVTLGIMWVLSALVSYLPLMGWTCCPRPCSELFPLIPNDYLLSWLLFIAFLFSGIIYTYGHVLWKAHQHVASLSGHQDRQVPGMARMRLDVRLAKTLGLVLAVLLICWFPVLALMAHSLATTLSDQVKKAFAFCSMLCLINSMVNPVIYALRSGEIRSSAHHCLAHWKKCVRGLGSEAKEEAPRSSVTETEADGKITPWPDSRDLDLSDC
T2 sequence (Q9HC97 whole entry): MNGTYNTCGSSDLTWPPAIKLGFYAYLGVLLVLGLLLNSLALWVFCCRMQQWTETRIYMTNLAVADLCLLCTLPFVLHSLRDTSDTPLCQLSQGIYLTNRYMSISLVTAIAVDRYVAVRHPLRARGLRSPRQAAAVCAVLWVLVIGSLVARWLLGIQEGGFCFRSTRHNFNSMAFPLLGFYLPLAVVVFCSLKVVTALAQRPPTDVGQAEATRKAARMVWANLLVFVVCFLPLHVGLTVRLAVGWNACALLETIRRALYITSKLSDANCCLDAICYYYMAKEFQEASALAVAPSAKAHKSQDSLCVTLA
T4 sequence (P21554 whole entry): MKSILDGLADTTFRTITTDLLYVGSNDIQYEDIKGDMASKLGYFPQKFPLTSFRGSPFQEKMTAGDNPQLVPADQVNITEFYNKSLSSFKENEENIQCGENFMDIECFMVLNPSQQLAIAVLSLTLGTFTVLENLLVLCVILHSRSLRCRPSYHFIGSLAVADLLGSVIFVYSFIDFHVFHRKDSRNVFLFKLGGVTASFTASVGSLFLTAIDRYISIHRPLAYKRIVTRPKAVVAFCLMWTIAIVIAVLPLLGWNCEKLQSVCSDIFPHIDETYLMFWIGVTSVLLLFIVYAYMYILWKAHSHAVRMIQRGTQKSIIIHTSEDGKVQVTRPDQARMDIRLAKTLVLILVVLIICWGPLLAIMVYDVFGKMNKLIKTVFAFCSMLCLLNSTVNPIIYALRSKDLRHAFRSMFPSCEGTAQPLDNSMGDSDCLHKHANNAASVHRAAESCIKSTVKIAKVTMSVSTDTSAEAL
T5 sequence (P98170 whole entry): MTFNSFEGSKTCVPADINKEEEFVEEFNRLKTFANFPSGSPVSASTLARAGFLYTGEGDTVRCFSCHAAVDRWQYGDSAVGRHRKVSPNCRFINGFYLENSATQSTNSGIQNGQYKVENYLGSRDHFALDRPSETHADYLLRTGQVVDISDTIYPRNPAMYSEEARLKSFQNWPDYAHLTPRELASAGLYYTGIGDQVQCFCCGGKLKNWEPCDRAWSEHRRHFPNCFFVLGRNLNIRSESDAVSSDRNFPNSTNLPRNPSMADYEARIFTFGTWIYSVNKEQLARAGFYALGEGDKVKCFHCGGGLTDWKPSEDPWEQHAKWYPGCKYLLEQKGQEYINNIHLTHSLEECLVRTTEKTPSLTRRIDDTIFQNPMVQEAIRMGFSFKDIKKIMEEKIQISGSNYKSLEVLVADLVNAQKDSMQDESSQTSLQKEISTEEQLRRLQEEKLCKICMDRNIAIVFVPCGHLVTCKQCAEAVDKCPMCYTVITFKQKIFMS
Sequence of Delta-type opioid receptor (P41143 whole entry): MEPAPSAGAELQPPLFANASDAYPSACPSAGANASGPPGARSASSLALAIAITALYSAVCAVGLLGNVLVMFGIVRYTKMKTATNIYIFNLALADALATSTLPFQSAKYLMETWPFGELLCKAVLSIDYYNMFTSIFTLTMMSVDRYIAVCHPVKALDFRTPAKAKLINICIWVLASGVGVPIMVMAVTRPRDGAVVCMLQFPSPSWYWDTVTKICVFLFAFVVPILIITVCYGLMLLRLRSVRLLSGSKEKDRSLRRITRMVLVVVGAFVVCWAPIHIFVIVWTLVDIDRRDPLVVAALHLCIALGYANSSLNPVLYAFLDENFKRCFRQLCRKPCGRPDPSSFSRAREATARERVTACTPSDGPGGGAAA
Sequence of Lysosomal acid glucosylceramidase (P04062 whole entry): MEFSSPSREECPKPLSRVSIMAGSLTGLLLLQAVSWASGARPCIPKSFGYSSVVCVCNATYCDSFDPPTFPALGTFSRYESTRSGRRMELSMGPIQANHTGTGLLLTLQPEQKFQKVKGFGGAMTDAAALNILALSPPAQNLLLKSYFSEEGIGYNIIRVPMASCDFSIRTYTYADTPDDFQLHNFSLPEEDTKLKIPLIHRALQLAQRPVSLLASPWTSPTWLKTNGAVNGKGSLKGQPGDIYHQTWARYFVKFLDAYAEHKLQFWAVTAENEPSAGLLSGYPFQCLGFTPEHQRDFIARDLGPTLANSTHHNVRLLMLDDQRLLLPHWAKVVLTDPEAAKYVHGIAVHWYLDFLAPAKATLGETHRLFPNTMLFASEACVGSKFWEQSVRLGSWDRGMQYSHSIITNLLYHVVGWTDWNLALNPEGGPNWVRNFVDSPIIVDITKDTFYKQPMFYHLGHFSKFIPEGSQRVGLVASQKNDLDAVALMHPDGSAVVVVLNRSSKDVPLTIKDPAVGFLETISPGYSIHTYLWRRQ
Sequence of Cytochrome P450 2D6 (P10635 whole entry): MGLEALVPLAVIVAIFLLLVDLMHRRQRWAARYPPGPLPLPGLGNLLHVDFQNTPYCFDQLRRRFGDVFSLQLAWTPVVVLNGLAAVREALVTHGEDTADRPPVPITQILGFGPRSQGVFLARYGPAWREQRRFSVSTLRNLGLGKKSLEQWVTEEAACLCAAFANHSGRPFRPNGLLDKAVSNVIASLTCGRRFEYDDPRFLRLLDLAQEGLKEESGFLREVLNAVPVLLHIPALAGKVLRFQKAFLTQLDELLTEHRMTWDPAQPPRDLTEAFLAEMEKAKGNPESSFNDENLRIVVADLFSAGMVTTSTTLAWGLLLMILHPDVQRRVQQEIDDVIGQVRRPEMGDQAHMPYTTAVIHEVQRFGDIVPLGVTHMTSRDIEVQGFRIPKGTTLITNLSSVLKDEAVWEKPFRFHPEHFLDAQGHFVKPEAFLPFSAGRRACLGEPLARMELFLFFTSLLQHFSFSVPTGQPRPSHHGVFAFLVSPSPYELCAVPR
Sequence of Cytochrome P450 2C19 (P33261 whole entry): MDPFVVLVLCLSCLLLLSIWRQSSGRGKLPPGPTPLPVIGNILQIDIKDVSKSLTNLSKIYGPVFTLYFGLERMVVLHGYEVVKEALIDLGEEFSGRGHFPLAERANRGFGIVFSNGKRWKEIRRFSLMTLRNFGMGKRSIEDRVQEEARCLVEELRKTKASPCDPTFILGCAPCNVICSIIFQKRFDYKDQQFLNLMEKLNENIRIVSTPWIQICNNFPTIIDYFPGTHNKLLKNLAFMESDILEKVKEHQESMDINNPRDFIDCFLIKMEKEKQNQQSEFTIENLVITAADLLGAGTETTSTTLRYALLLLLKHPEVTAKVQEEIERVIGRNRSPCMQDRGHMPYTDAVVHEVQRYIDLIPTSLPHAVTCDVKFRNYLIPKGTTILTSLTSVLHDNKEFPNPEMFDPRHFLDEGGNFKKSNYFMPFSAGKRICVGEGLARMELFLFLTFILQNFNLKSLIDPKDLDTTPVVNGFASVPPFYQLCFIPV
Sequence of Beta Lactamase (Q932Y6 whole entry, the tested form may be a part): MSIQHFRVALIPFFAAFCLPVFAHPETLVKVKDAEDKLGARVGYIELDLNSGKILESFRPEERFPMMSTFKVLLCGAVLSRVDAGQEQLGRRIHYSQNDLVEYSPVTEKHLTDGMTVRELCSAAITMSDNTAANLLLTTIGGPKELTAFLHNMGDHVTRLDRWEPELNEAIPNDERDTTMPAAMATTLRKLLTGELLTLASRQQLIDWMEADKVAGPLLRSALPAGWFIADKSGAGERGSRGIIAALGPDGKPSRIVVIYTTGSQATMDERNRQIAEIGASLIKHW

For `CCSc1nc(O)c(CC)c(=O)n1C(C)CC` (stereo not given), which EC50 [1] is on record?
Its EC50 is > 100 µM (inactive).

For `N=c1c(C(=O)NC2CCCC2)cc2c(=O)n3ccccc3nc2n1C1CCCC1`, which AC50 (Cytochrome P450 2D6) is on record?
Its AC50 is 3.55 µM (inconclusive).

And the EC50 [2]?
Its EC50 is > 32 µM (inactive).

And the AC50 (Cytochrome P450 2C19)?
Its AC50 is 11.2 µM (inconclusive).

And the EC50 (Cannabinoid receptor 2 [3])?
The EC50 was > 32 µM (inactive).

And the IC50 (Cannabinoid receptor 1 [4])?
Its IC50 is > 32 µM (inactive).

What about the IC50 [5] of the same compound?
Its IC50 is > 32 µM (inactive).

What about the IC50 [6] of the same compound?
Its IC50 is > 32 µM (inactive).

What about the EC50 (Cannabinoid receptor 1 [7]) of the same compound?
Its EC50 is > 32 µM (inactive).

And the IC50 (Cannabinoid receptor 2 [8])?
Its IC50 is > 32 µM (inactive).

With `O=C(COc1ccc(F)cc1Cl)N[C@H]1CCCN(Cc2ccccc2)C1` as the compound, how does the EC50 [9] read?
Its EC50 is 10 µM (active).

Which IC50 [10] does the source give for `Cc1ccc(-c2cc(C(=O)NC3=NCCS3)c3ccccc3n2)cc1C` here?
Its IC50 is > 100 µM (not active).

And the IC50 [11]?
Its IC50 is > 100 µM (inactive).

Which results are given for `COc1ccc(C(=O)n2nc(-c3ccccc3)nc2N)cc1OC`?
IC50 (Coagulation factor XII): 2.6 µM (active); IC50 [12]: 19.2 µM (not active); EC50 [13]: > 10 µM (not active)

Which IC50 (SUMO-activating enzyme) does the source give for `COc1ccc(NC2=NC(=O)/C(=C\c3ccco3)S2)cc1` here?
Its IC50 is 9.8 µM (active).

For `OCCNc1c2ccccc2nc2c(F)c(F)c(F)c(F)c12`, which AC50 [14] is on record?
The AC50 was 4.14 µM (active).

What about the IC50 [15] of the same compound?
Its IC50 is 38.7 µM (active).

And the IC50 (Beta Lactamase)?
The IC50 was 2.27 µM (active).

What about the IC50 (CHO) of the same compound?
The IC50 was 3.97 µM (active).

What about the EC50 [16] of the same compound?
Its EC50 is 3.83 µM (active).

What about the EC50 [17] of the same compound?
Its EC50 is 2.16 µM (active).

What about the IC50 [18] of the same compound?
Its IC50 is > 100 µM (inactive).

What about the EC50 (Kallikrein-7) of the same compound?
Its EC50 is > 69.5 µM (inactive).

For `Cc1ccnc2c1n1cccc1c(=O)n2CC(=O)NCCCN1CCN(c2ccc3c(c2)OCO3)CC1`, which IC50 [19] is on record?
Its IC50 is 0.369 µM (active).

What about the IC50 [20] of the same compound?
Its IC50 is > 32 µM (inactive).

And the IC50 [21]?
The IC50 was 0.0451 µM (active).

What about the IC50 [22] of the same compound?
Its IC50 is 0.482 µM (active).

And the IC50 (Mu-type opioid receptor)?
The IC50 was 17.2 µM (inactive).
